In general, IC50 refers to the midpoint of a concentration-inhibition curve.

Read-outs that look alike come from different tables or passages of the source.

The text below walks through data of US20230051589A1, “COMPOUNDS AND COMPOSITIONS FOR TREATING CONDITIONS ASSOCIATED WITH NLRP ACTIVITY” (Novartis AG, priority 2018, published 2023).

The test concerns IL-1β production in PMA-differentiated THP-1 cells. Put plainly: IL-1β production in PMA-differentiated THP-1 cells stimulated with gramicidin (hTHP-1 assay, 2% fetal bovine serum; Procedures 1-3). In kind it is cell-based, human. In a few lines: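 IL-1β released into supernatants was read by HTRF after 2 h gramicidin (5 μM) challenge. Before challenge, compounds (3-fold dilutions, top 100 μM, 0.37% DMSO) were given 1 h on THP-1 cells differentiated with PMA (20 ng/ml, 16-18 h) and held in 2% FBS medium.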

The mark [1] stands for this setting: Homo sapiens, THP-1, Table B3, hTHP-1 assay containing 2% fetal bovine serum, gramicidin stimulation, IL-1β readout, read-out: hTHP-1 IC50.
Where [2] appears, read: Table B3, hTHP-1 assay containing 2% fetal bovine serum, gramicidin stimulation, IL-1β readout, read-out: hTHP-1 IC50.

Turning to `C[C@@](O)(CO)c1ncc([S@](N)(=O)=NC(=O)Nc2c3c(cc4c2CCC4)CCC3)s1` [Example 714, (R)-2-((R)-1,2-dihydroxypropan-2-yl)-N-((1,2,3,5,6,7-hexahydro-s-indacen-4-yl)carbamoyl)thiazole-5-sulfonimidamide], the IC50 (Homo sapiens, THP-1, hTHP-1 assay containing 2% fetal bovine serum, Table B2, class symbols, read-out: IC50) was 8 to 40 nM.

Take `NS(=O)(=NC(=O)Nc1c2c(cc3c1CC3)CCC2)c1cc2c(s1)CCNC2` (centres unmarked) [Example 715, N′-((2,4,5,6-tetrahydro-1H-cyclobuta[f]inden-3-yl)carbamoyl)-4,5,6,7-tetrahydrothieno[3,2-c]pyridine-2-sulfonimidamide]: the IC50 under setting [1] was 40 to 200 nM.

For the molecule `NS(=O)(=NC(=O)Nc1c2c(cc3c1CC3)CCC2)c1sc(CN2CCC2)cc1F` (centres unmarked) [Example 718, 5-(Azetidin-1-ylmethyl)-3-fluoro-N′-((2,4,5,6-tetrahydro-1H-cyclobuta[f]inden-3-yl)carbamoyl)thiophene-2-sulfonimidamide], the IC50 under setting [1] lay in the range of 200 to 1000 nM.

Consider `CNC(c1ccc(S(N)(=O)=NC(=O)Nc2c3c(cc4c2CC4)CCC3)s1)C1CC1` (centres unmarked) [Example 719, 5-(Cyclopropyl(methylamino)methyl)-N′-((2,4,5,6-tetrahydro-1H-cyclobuta[f]inden-3-yl)carbamoyl)thiophene-2-sulfonimidamide], for which the IC50 under setting [1] lay in the range of 8 to 40 nM.

Regarding `CNCc1csc(S(N)(=O)=NC(=O)Nc2c3c(cc4c2CC4)CCC3)c1` (centres unmarked) [Example 722, 4-((Methylamino)methyl)-N′-((2,4,5,6-tetrahydro-1H-cyclobuta[f]inden-3-yl)carbamoyl)thiophene-2-sulfonimidamide], the IC50 under setting [1] lay in the range of 40 to 200 nM.

On to `CNC(c1ccc(S(N)(=O)=NC(=O)Nc2c3c(cc4c2CCC4)CCC3)s1)C1CC1` (centres unmarked) [Example 723, 5-(cyclopropyl(methylamino)methyl)-N′-((1,2,3,5,6,7-hexahydro-s-indacen-4-yl)carbamoyl)thiophene-2-sulfonimidamide], for which, under setting [1], the IC50 lay within 40 to 200 nM.

Consider `NS(=O)(=NC(=O)Nc1c2c(cc3c1CCC3)CCC2)c1cc2c(s1)CCNC2` (centres unmarked) [Example 724, N′-((1,2,3,5,6,7-hexahydro-s-indacen-4-yl)carbamoyl)-4,5,6,7-tetrahydrothieno[3,2-c]pyridine-2-sulfonimidamide], for which, under setting [1], the IC50 was 40 to 200 nM.

As to `CC(NC1CCC1)c1ccc(S(N)(=O)=NC(=O)Nc2c3c(cc4c2CC4)CCC3)c(F)c1` (centres unmarked) [Example 725, 4-(1-(cyclobutylamino)ethyl)-2-fluoro-N′-((2,4,5,6-tetrahydro-1H-cyclobuta[f]inden-3-yl)carbamoyl)benzenesulfonimidamide], the IC50 under setting [2] lay in the range of 200 to 1000 nM.

As to `NS(=O)(=NC(=O)Nc1c2c(cc3c1CCC3)CCC2)c1sc(CNC2CCC2)cc1F` (centres unmarked) [Example 726, 5-((Cyclobutylamino)methyl)-3-fluoro-N′-((1,2,3,5,6,7-hexahydro-s-indacen-4-yl)carbamoyl)thiophene-2-sulfonimidamide], the IC50 under setting [1] lay in the range of 200 to 1000 nM.

With `CN(Cc1ccc(S(N)(=O)=NC(=O)Nc2c3c(cc4c2CC4)CCC3)c(F)c1)C1CCC1` (centres unmarked) [Example 727, 4-((cyclobutyl(methyl)amino)methyl)-2-fluoro-N′-((2,4,5,6-tetrahydro-1H-cyclobuta[f]inden-3-yl)carbamoyl)benzenesulfonimidamide], under setting [1], the IC50 fell in the range of 1000 to 5000 nM.

On to `NS(=O)(=NC(=O)Nc1c2c(cc3c1CCC3)CCC2)c1ccc(-c2ccccc2CO)s1` (centres unmarked) [Example 728, N′-((1,2,3,5,6,7-hexahydro-s-indacen-4-yl)carbamoyl)-5-(2-(hydroxymethyl)phenyl)thiophene-2-sulfonimidamide], for which, under setting [1], the IC50 was 200 to 1000 nM.

For the molecule `NS(=O)(=NC(=O)Nc1c2c(cc3c1CCC3)CCC2)c1ccc(-c2ccccc2O)s1` (centres unmarked) [Example 729, N′-((1,2,3,5,6,7-hexahydro-s-indacen-4-yl)carbamoyl)-5-(2-hydroxyphenyl)thiophene-2-sulfonimidamide], the concentration for half-maximal inhibition (IC50) under setting [1] lay in the range of 1000 to 5000 nM.

With `NS(=O)(=NC(=O)Nc1c2c(cc3c1CCC3)CCC2)c1ccc([C@@H]2CCCN2)s1` (stereo partly drawn) [Example 730, N′-((1,2,3,5,6,7-hexahydro-s-indacen-4-yl)carbamoyl)-5-((S)-pyrrolidin-2-yl)thiophene-2-sulfonimidamide], the IC50 under setting [1] was 200 to 1000 nM.

In the case of `NS(=O)(=NC(=O)Nc1c2c(cc3c1CCC3)CCC2)c1ccc([C@H]2CCCN2)s1` (stereo partly drawn) [Example 731, N′-((1,2,3,5,6,7-hexahydro-s-indacen-4-yl)carbamoyl)-5-((R)-pyrrolidin-2-yl)thiophene-2-sulfonimidamide], the IC50 under setting [1] was in the range of 200 to 1000 nM.

As for `NS(=O)(=NC(=O)Nc1c2c(cc3c1CC3)CCC2)c1sc2c(c1F)CNCC2` (centres unmarked) [Example 732, 3-Fluoro-N′-((2,4,5,6-tetrahydro-1H-cyclobuta[f]inden-3-yl)carbamoyl)-4,5,6,7-tetrahydrothieno[3,2-c]pyridine-2-sulfonimidamide], under setting [1], the IC50 was in the range of 8 to 40 nM.

Consider `NS(=O)(=NC(=O)Nc1c2c(cc3c1CCC3)CCC2)c1sc(C(O)(CO)CO)nc1CO` (centres unmarked) [Example 733, N′-((1,2,3,5,6,7-hexahydro-s-indacen-4-yl)carbamoyl)-4-(hydroxymethyl)-2-(1,2,3-trihydroxypropan-2-yl)thiazole-5-sulfonimidamide], for which the IC50 under setting [1] was 40 to 200 nM.

`CN(C)Cc1ccc(S(N)(=O)=NC(=O)Nc2c3c(cc4c2CCC4)CCC3)s1` (centres unmarked) [Example 735, 5-((Dimethylamino)methyl)-N-((1,2,3,5,6,7-hexahydro-s-indacen-4-yl)carbamoyl)thiophene-2-sulfonimidamide]: the IC50 under setting [1] was in the range of 1000 to 5000 nM.

Turning to `CCn1ccc(S(N)(=O)=NC(=O)Nc2c3c(cc4c2CCC4)CCC3)n1` (centres unmarked) [Example 736, 1-Ethyl-N′-((1,2,3,5,6,7-hexahydro-s-indacen-4-yl)carbamoyl)-1H-pyrazole-3-sulfonimidamide], under setting [1], the IC50 was in the range of 200 to 1000 nM.

For the molecule `CCn1ccc(S(N)(=O)=NC(=O)Nc2c3c(cc4c2CC4)CCC3)n1` (centres unmarked) [Example 737, 1-Ethyl-N′-((2,4,5,6-tetrahydro-1H-cyclobuta[f]inden-3-yl)carbamoyl)-1H-pyrazole-3-sulfonimidamide], the IC50 under setting [1] lay within 200 to 1000 nM.

Take `CC(C)(O)c1nc(CO)c(S(N)(=O)=NC(=O)Nc2c3c(cc4c2C(=O)CC4)CCC3)s1` (centres unmarked) [Example 738, 4-(Hydroxymethyl)-2-(2-hydroxypropan-2-yl)-N-((3-oxo-1,2,3,5,6,7-hexahydro-s-indacen-4-yl)carbamoyl)thiazole-5-sulfonimidamide]: the IC50 under setting [1] fell in the range of 1000 to 5000 nM.

`CC(C)n1nc(S(N)(=O)=NC(=O)Nc2c3c(cc4c2C(=O)CC4)CCC3)cc1C(C)(C)O` (centres unmarked) [Example 740, 5-(2-Hydroxypropan-2-yl)-1-isopropyl-N′-((3-oxo-1,2,3,5,6,7-hexahydro-s-indacen-4-yl)carbamoyl)-1H-pyrazole-3-sulfonimidamide]: the IC50 under setting [1] is 200 to 1000 nM.

With `C[C@](O)(CO)c1ncc(S(N)(=O)=NC(=O)Nc2c3c(cc4c2CC4)CCC3)s1` (stereo partly drawn) [Example 741, 2-((S)-1,2-dihydroxypropan-2-yl)-N′-((2,4,5,6-tetrahydro-1H-cyclobuta[f]inden-3-yl)carbamoyl)thiazole-5-sulfonimidamide], the IC50 under setting [1] was in the range of 8 to 40 nM.

In the case of `C[C@@](O)(CO)c1ncc(S(N)(=O)=NC(=O)Nc2c3c(cc4c2CC4)CCC3)s1` (stereo partly drawn) [Example 742, 2-((R)-1,2-dihydroxypropan-2-yl)-N′-((2,4,5,6-tetrahydro-1H-cyclobuta[f]inden-3-yl)carbamoyl)thiazole-5-sulfonimidamide], the 50% inhibitory concentration (IC50) under setting [1] is 8 to 40 nM.

For `C[C@@](O)(CO)c1ncc(S(N)(=O)=NC(=O)Nc2c3c(cc4c2C(=O)CC4)CCC3)s1` (stereo partly drawn) [Example 743, 2-((R)-1,2-dihydroxypropan-2-yl)-N′-((3-oxo-1,2,3,5,6,7-hexahydro-s-indacen-4-yl)carbamoyl)thiazole-5-sulfonimidamide], the IC50 under setting [1] fell in the range of 200 to 1000 nM.

With `C[C@](O)(CO)c1ncc(S(N)(=O)=NC(=O)Nc2c3c(cc4c2C(=O)CC4)CCC3)s1` (stereo partly drawn) [Example 744, 2-((S)-1,2-dihydroxypropan-2-yl)-N′-((3-oxo-1,2,3,5,6,7-hexahydro-s-indacen-4-yl)carbamoyl)thiazole-5-sulfonimidamide], the IC50 under setting [1] was in the range of 40 to 200 nM.

As to `CC1=CC(C)=[N+]2C1=Cc1ccc(CCC(=O)N(C)Cc3ccc([S@@](=N)(=O)NC(=O)Nc4c5c(cc6c4CCC6)CCC5)cc3)n1[B-]2(F)F` [Example 745, (S)-3-(5,5-difluoro-7,9-dimethyl-5H-5λ4,6λ4-dipyrrolo[1,2-c:2′,1′-f][1,3,2]diazaborinin-3-yl)-N-(4-(N′-((1,2,3,5,6,7-hexahydro-s-indacen-4-yl)carbamoyl)sulfamidimidoyl)benzyl)-N-methylpropanamide], the 50% inhibitory concentration (IC50) under setting [2] is 1000 to 5000 nM.

`C[C@](O)(COCCO)c1ccc([S@@](N)(=O)=NC(=O)Nc2c3c(cc4c2CCC4)CCC3)s1` [Example 748, (S)-N′-((1,2,3,5,6,7-hexahydro-s-indacen-4-yl)carbamoyl)-5-((S)-2-hydroxy-1-(2-hydroxyethoxy)propan-2-yl)thiophene-2-sulfonimidamide]: under setting [1], the IC50 lay within 40 to 200 nM.

With `C[C@](O)(COCCO)c1ccc([S@](N)(=O)=NC(=O)Nc2c3c(cc4c2CCC4)CCC3)s1` [Example 749, (R)-N′-((1,2,3,5,6,7-hexahydro-s-indacen-4-yl)carbamoyl)-5-((S)-2-hydroxy-1-(2-hydroxyethoxy)propan-2-yl)thiophene-2-sulfonimidamide], the IC50 under setting [1] lay in the range of 200 to 1000 nM.

With `C[C@](O)(COCCOCCOCCOCCO)c1ncc(S(N)(=O)=NC(=O)Nc2c3c(cc4c2CCC4)CCC3)s1` (stereo partly drawn) [Example 750, 2-((S)-1,14-dihydroxy-3,6,9,12-tetraoxapentadecan-14-yl)-N′-((1,2,3,5,6,7-hexahydro-s-indacen-4-yl)carbamoyl)thiazole-5-sulfonimidamide], the IC50 under setting [1] is 5000 to 30000 nM.
